Where two headings read alike, the source gives them in different places.
Columns and labels:
human N-type Ca channel [1] = target: T1, human N-type Ca channel (Homo sapiens, UniProt Q00975); test: Calcium influx assay (FDSS), KCl depolarization, Fluo8 dye; assay type: cell-based; set-up: host or cells: HEK 293
Method in brief: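 HEK293 cells stably expressing the human N-type Ca channel were loaded with Fluo8 and washed in choline-based buffer (pH 7.2, 2 mM CaCl2, 2 mM KCl). Cells were preincubated with serially diluted compound for 15 min in the dark. Ca influx was then recorded by fluorescence after depolarization with 100 mM KCl.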

Rats = test: Sciatic nerve ligation (SNL) model of neuropathic pain, L5/L6 spinal nerve ligation, von Frey filaments; assay type: in vivo; settings: response at Tmax
Source text: Left L5 and L6 spinal nerves are isolated adjacent to the vertebral column and were ligated with 5-0 silk suture distal to the dorsal root ganglion, as described by Kim and Chung (1992). The incision was closed with the help of GLUture topical tissue adhesive. At 14 days post-surgery (one day prior to test compound administration), mechanical allodynia was quantified using eight von Frey filaments, calibrated in the range 0.4-15.1 g (Nielsen et al 2005). Rats were placed into individual plastic containers on top of a suspended wire mesh grid and acclimated to the test chambers for at least 15 min. Filaments were applied perpendicular to the mid-plantar paw surface, with enough force to cause slight buckling, and held in place for 6-8 sec until a response was noted as a sharp paw withdrawal, flinching, licking and/or biting immediately upon removal of the filament (Nielsen et al 2005). […] Test compounds of Formula (I) were administered and a response was measured at Tmax. The maximum possible effect (% MPE) was determined to be 100% if the sensitivity in the ipsilateral paw neared that of the contralateral paw. Values from vehicle-treated animals were considered 0 %. The compound effect was determined based on these values.

human N-type Ca channel [2] = target: T1, human N-type Ca channel; test: Electrophysiological response, QPatch (depolarization -80 mV to +20 mV)
Description: The recombinant cell line described above was used in the measurement of electrophysiological properties with QPatch (Sophion). Cells were maintained in culture as mentioned above. Prior to the experiment, the flasks were moved to 30 °C and incubated for 48-72 hrs. On the day of assaying, cells were detached and harvested. The cell pellet was re-suspended in SMF4HEK (HyClone)/25mM HEPS at 2-5 million/ mL and placed on the QStirrer of the QPatch for 30-60 min prior to the start of the assay. […] Microtiter-Plate/Reference Buffer contained 140 mM TEA-Cl, 10mM BaCl2, 0.8 mM MgCl2, 10 mM HEPES pH ∼7.4 adjusted with TEA-OH/HCl, and ∼300mOsm. Cells were transferred to a QPatch 48 plate and gigaseal was formed. The plate was perfused with intracellular and extracellular buffer. […] In brief, cells were depolarized from resting potential of -80 mV to +20 mV and current was recorded. Data was plotted as percent inhibition vs concentration of the compound and IC50 values were generated using Graphpad Prism non-linear regression analysis.

[3] = system: CFA-induced mechanical allodynia; test: Complete Freund's Adjuvant (CFA) induced mechanical allodynia, Von Frey test; assay type: in vivo
Description: Animals arrived and were acclimatized for 1-2 weeks in a temperature-controlled room with a 12 h light/dark cycle and allowed free access to standard laboratory chow and water.
CFA (Sigma) was injected intra-plantar (75 µg/150 µL) from a concentration of 1:1 (diluted 1 mg/ mL of CFA in 1 mL ofPBS). CFA-induced mechanical allodynia was quantified by a Von frey test on day 2 (48 h post injection of CFA) and animals were randomized based on iPWT response (Dixon 1980). […] Animals were administered a compound of Formula (I) through appropriate route based on their pharmacokinetic properties. Responses were measured with a Von-Frey filament. The maximum possible effect (% MPE) was determined as 100% if sensitivity in ipsilateral paw neared that of the contralateral paw. Values from the vehicle-treated animals were considered 0%. The compound effect was determined based on these values.

T1 sequence (Q00975 whole entry): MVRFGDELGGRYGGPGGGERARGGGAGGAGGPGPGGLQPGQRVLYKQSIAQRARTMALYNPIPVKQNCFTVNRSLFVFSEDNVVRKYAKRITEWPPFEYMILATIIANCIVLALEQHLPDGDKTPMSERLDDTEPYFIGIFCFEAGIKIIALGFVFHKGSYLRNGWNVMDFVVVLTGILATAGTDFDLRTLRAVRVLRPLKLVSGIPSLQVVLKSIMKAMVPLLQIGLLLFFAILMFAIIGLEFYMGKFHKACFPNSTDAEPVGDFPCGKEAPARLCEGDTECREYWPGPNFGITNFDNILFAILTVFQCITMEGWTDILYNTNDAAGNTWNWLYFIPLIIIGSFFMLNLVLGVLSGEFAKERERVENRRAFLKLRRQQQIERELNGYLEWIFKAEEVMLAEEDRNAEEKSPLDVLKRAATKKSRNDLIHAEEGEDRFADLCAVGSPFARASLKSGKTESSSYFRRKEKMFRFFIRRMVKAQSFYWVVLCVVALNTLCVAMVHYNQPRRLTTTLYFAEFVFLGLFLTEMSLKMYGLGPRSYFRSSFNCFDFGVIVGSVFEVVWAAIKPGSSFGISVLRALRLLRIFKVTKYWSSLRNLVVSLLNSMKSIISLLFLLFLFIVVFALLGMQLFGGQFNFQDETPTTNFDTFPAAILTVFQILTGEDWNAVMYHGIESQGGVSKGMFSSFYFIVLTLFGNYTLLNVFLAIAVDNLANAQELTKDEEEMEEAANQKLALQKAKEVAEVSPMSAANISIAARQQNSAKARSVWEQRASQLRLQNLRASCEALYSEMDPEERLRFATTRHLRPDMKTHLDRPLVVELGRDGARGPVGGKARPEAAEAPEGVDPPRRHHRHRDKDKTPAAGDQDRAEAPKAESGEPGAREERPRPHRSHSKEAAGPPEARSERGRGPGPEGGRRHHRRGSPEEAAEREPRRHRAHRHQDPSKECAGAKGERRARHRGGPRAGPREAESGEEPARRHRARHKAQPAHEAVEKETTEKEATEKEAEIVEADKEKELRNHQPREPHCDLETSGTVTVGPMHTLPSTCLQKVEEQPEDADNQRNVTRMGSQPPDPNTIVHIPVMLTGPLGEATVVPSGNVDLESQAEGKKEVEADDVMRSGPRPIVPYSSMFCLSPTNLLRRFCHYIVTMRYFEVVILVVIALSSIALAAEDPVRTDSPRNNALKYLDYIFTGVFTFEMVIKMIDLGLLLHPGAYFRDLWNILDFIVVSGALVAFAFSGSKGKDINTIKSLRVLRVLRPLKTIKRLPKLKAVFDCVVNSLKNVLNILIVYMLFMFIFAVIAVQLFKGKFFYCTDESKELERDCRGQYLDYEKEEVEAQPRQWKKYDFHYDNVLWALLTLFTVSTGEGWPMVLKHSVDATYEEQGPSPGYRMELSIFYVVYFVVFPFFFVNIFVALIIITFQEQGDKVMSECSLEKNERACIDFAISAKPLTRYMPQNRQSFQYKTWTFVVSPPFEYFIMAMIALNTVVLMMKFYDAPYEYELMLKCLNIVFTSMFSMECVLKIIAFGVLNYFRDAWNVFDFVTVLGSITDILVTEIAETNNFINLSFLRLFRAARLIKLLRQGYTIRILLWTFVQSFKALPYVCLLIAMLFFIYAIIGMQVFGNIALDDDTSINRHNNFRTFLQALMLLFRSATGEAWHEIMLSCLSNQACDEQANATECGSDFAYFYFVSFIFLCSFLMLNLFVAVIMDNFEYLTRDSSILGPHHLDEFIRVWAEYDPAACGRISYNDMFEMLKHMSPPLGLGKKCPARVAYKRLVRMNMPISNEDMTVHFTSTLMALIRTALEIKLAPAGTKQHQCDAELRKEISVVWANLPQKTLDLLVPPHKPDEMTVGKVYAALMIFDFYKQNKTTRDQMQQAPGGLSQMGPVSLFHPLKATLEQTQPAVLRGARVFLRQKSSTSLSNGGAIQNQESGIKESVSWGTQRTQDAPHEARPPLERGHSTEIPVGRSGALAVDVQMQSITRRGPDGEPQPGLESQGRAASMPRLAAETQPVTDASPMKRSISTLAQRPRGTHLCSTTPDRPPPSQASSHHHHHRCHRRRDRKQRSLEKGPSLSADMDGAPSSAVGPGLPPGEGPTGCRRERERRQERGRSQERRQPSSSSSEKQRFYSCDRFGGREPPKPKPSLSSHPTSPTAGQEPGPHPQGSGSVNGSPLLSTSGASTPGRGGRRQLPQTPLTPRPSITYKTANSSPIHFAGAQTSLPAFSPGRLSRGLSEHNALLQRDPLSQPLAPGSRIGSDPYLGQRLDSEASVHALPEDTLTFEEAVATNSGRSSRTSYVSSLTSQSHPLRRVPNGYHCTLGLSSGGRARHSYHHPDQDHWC
T1 sequence (P54284 whole entry partner): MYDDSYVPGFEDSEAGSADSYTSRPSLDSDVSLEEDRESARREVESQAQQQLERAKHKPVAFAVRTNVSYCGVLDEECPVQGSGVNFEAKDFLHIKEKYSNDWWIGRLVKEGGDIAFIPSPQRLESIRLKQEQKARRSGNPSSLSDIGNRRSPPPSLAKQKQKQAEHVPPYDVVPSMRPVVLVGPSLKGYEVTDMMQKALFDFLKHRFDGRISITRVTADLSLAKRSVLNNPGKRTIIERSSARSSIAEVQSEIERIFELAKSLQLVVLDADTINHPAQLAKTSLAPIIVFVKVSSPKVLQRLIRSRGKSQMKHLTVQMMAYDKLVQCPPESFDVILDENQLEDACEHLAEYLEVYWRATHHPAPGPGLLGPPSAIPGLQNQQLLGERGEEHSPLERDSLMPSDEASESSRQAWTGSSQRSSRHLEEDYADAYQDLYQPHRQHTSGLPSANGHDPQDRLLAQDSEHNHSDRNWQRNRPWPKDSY
T1 sequence (P54289 25-956 partner limits assumed): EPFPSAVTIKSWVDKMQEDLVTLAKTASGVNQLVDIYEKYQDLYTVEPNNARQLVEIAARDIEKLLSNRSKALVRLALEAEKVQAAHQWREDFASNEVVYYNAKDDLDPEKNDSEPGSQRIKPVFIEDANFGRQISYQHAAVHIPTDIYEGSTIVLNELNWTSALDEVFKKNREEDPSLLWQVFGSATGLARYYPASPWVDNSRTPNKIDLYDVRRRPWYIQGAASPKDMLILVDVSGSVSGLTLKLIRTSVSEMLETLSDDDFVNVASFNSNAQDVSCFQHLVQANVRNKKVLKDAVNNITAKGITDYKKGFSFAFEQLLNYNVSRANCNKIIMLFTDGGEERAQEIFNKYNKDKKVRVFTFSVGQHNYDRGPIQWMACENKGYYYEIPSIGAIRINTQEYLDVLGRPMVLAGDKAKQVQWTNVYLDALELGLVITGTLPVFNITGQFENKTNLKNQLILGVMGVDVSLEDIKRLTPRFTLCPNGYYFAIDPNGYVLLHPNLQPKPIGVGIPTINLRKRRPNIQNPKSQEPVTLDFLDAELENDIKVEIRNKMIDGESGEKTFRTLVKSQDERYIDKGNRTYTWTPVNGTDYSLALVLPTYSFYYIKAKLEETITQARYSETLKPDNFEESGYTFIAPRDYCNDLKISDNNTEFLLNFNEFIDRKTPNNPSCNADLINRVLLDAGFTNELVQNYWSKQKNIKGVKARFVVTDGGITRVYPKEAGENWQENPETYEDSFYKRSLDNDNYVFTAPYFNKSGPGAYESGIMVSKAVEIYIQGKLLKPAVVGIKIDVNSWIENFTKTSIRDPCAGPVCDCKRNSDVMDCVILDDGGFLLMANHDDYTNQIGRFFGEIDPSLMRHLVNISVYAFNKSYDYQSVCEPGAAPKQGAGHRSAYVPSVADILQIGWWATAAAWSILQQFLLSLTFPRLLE
T1 sequence (P54289 957-1103 partner limits assumed): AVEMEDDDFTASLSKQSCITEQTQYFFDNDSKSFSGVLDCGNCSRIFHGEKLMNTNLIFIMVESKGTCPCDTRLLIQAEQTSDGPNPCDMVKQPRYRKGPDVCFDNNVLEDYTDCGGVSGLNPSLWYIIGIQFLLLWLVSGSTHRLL

COc1ncccc1-c1nc(C2CC(C)(C)OC(C)(C)C2)cn1-c1ccc(Cl)cc1 [Compound 11, 3-(1-(4-chlorophenyl)-4-(2,2,6,6-tetramethyltetrahydro-2H-pyran-4-yl)-1H-imidazol-2-yl)-2-methoxypyridine]
IC50 (human N-type Ca channel [1]): 0.082 µM | SNL(%MPE) (Rats; Dose 3 mg/kg): 28.29± 10.84% | SNL(%MPE) (Rats; Dose 10 mg/kg): 49.01±9.93% | SNL(%MPE) (Rats; Dose 30 mg/kg): 70.69±10.3% | SNL(%MPE) (Rats; Dose 60 mg/kg): 96.18±3.22% | inhibition at 10 µM (human N-type Ca channel [2]; read-out: Qpatch Pulse=1 (percent inhibition)): 63% | inhibition at 10 µM (human N-type Ca channel [2]; read-out: Qpatch Pulse=15 (percent inhibition)): 21% | CFA (% Reversal) ([3]; Dose 3 mg/kg): 20.97±7.88% | CFA (% Reversal) ([3]; Dose 10 mg/kg): 41.12±5.14% | CFA (% Reversal) ([3]; Dose 30 mg/kg): 55.8±11.32% | CFA (% Reversal) ([3]; Dose 60 mg/kg): 76.4±3.78%

— EP3033337B1, “SUBSTITUTED IMIDAZOLES AS N-TYPE CALCIUM CHANNEL BLOCKERS” (Janssen Pharmaceutica NV, priority 2013, dated 2015)
